Data reported in patent US20230172885A1, “THIOL-CONTAINING COMPOUNDS FOR USE IN TREATING CORONAVIRUS” (priority 2020, published 2023).
Entries after “also recorded” stand apart in the source; their conditions may differ. Like-named read-outs stand apart in the source and are kept apart here.

What was measured:
[1] = cited from earlier work
[2] = tested on: SARS-2-S pseudovirus (rVSV-ΔG luciferase); format: cell-based; settings: pseudovirus pre-incubated with 1.56-100 mM drug for 2 hours, 66-fold dilution
[3] = target: T1, RBD^original (SARS-CoV-2 receptor binding domain) binding to ACE2 (Severe acute respiratory syndrome coronavirus 2, UniProt P0DTC2); settings: for inhibition of binding of RBD^original to ACE2: RBD exposed to drug for 60 minutes, 0 to 20 mM; for binding of RBD^original to ACE2 at one and two hours post exposure and wash: drug at 5 mM for 1 hour, three washes
T1 construct: ACRO Biosystems); purchased ACRO Biosystems

[4] = tested on: SARS-CoV-2, isolate USA-WA1/2020; format: cell-based
[5] = tested on: SARS CoV2 (isolate USA-WA1/2020); parameters: species or system Syrian hamsters (Mesocricetus auratus); settings: hamster, in vivo
[6] = target: T2, SARS-CoV-2 spike protein (SARS-2-S) binding to ACE2 (Severe acute respiratory syndrome coronavirus 2, UniProt P0DTC2)
T2 construct: Recombinantly expressed RBD of SARS-2-S was first immobilized to a surface

[7] = tested on: VSV pseudotype bearing the SARS-2-S protein (VSV-S); format: cell-based, SARS-CoV-2
[8] = format: physicochemical; settings: 11 mg/mL in 20 mM sodium citrate, pH 4.5, 38.5 mM NaCl; Aerogen Solo vibrating mesh nebulizer

In the case of `OCC(S)CS` (stereo not shown) [2,3-Dimercaprol], the “pKa (thiol group)” value ([1]; dithiol drugs, second thiol) is given as 10.6.

With `NCCCNCCSP(=O)(O)O` [Amifostine] the “pseudovirus cell entry, pseudovirus pre-treatment” value (“pseudovirus cell entry” below) [2] was “did not inhibit viral cell entry”.

In the case of `CC(C)(S)C(=O)N[C@@H](CS)C(=O)O` [Bucillamine], the “pKa (thiol group)” value [1] is given as 8.4 and the “pKa (thiol group)” value ([1]; dithiol drugs, second thiol) is given as 10.2.

In the case of `N[C@@H](CSCC(=O)O)C(=O)O` [Carbocysteine], the “pseudovirus cell entry” value [2] is reported as “did not inhibit viral cell entry”.

For `NCCS` [Cysteamine], the “inhibition of binding of RBD^original to ACE2” value (“inhibition of binding … to ACE2” below) [3] was “decreased binding; also recorded: strong inhibitory effects”, the “binding of RBD^original to ACE2 at one and two hours post exposure and wash” value [3] was “binding inhibition was retained for two hours” and the “pseudovirus cell entry” value [2] was “decrease the entry efficiency”. The “cytopathic effects (CPE) in virus-infected cells, virus exposed to drug prior to infection” value [4] was “inhibit live virus infection; also recorded: significantly inhibited”, the “potency among thiol drugs in the in vitro assays” value (SARS-CoV-2) was “most potent thiol drug” and the “SARS-CoV2 viral titers (viral RNA, RT-qPCR) in lungs” value [5] was “did not decrease; also recorded: does not decrease”. For the same compound, the “interleukin-6 levels in lung lavage” value [5] was “lower than control”, the “lung weights normalized to terminal body weights” value [5] was “lower than in control groups” and the “lymphocytes in BAL fluid” value [5] was “decreases”. The “neutrophils in BAL fluid” value [5] was “decreases”, the “severity of SARS-CoV2 lung inflammation” value [5] was “did decrease; also recorded: decreased; also recorded: has anti-inflammatory effects” and the “total leukocyte counts in the bronchoalveolar lavage (BAL) fluid” value [5] was “lower than control”. For the same compound, the “pKa (thiol group)” value [1] was 8.2.

For `O=C(O)C(S)C(S)C(=O)O` (stereo not shown) [Dimercaptosuccinic acid], the “pKa (thiol group)” value [1] is listed as 8.9 and the “pKa (thiol group)” value ([1]; dithiol drugs, second thiol) is listed as 10.8.

In the case of `N[C@@H](CCC(=O)N[C@@H](CS)C(=O)NCC(=O)O)C(=O)O` [Glutathione], the “pKa (thiol group)” value [1] is listed as 9.2.

In the case of `O=S(=O)([O-])CCS.[Na+]` [MESNA, 2-mercaptoethane sulfonate, sodium salt], the “inhibition of binding … to ACE2” value [3] is reported as “strong inhibitory effects”, the “binding of RBD^original to ACE2 at one and two hours post exposure and wash” value [3] is reported as “binding inhibition was retained for two hours” and the “antiviral efficacy in vitro compared with NAC” value (SARS-CoV-2) is reported as “superior antiviral efficacy in vitro”.

With `O[C@@H]1[C@@H](O)[C@@H](O[C@H]2O[C@H](CS)[C@@H](O)[C@H](O)[C@H]2O)O[C@H](CS)[C@H]1O` [MUC-31, 6,6′-dithiotrehalose] the “binding inhibition after drug is washed out of the reaction mixture” value [6] was “binding inhibition persists following drug contact”, the “inhibition of binding of ACE2 to SARS-2-S” value [6] was “inhibit binding” and the “potency in inhibiting ACE2 binding compared to NAC” value [6] was “stronger potency”. For the same compound, the “effectiveness for inhibiting viral entry compared with NAC” value [7] was “more effective than NAC”, the “inhibition of VSV-S cellular entry” value [7] was “inhibited VSV-S cellular entry; also recorded: inhibited from entering” and the “inhibition of VSV-S entry, all three concentrations” value [7] was “potent inhibition”. For the same compound, the “inhibition of binding … to ACE2” value [3] was “decreased binding; also recorded: strong inhibitory effects”, the “binding of RBD^original to ACE2 at one and two hours post exposure and wash” value [3] was “binding inhibition was retained for two hours” and the “pseudovirus cell entry” value [2] was “decrease the entry efficiency”. For the same compound, the “cytopathic effects (CPE) in virus-infected cells, virus exposed to drug prior to infection” value [4] was “inhibit live virus infection; also recorded: significantly inhibited”, the “SARS-CoV2 viral titers (viral RNA, RT-qPCR) in lungs” value ([5]; 0.5 mg/kg) was “decreases; also recorded: significantly lower” and the “interleukin-6 levels in lung lavage” value ([5]; 0.5 mg/kg) was “lower than control”. The “lung weights normalized to terminal body weights” value ([5]; 0.5 mg/kg) was “lower than in control groups”, the “macrophages in BAL fluid” value ([5]; 0.5 mg/kg) was “decreases” and the “severity of SARS-CoV2 lung inflammation” value ([5]; 0.5 mg/kg) was “decreased; also recorded: limit SARS-COV-2-associated lung inflammation”. The “total leukocyte counts in the bronchoalveolar lavage (BAL) fluid” value ([5]; 0.5 mg/kg) was “lower than control” and the “average mass median aerodynamic diameter (MMAD) of the exposure atmosphere” value [8] was 2.60 µm.

For `CC(=O)N[C@@H](CS)C(=O)O` [NAC, N-acetyl-L-cysteine], the “inhibition of binding of ACE2 to SARS-2-S” value [6] was “inhibit binding”, the “cell entry inhibition of VSV-S, only 5 and 25 mM” value [7] was “significant cell entry inhibition” and the “inhibition of VSV-S cellular entry” value [7] was “inhibited VSV-S cellular entry; also recorded: inhibited from entering”.

In the case of `CC(C)(S)[C@@H](N)C(=O)O` [Penicillamine], the “pKa (thiol group)” value [1] is given as 10.5.

For `CC(S)C(=O)NCC(=O)O` (stereo not shown) [Tiopronin], the “pKa (thiol group)” value [1] is listed as 8.7.

For `NCCCNCCS` [WR-1065], the “inhibition of binding … to ACE2” value [3] is given as “strong inhibitory effects”, the “binding of RBD^original to ACE2 at one and two hours post exposure and wash” value [3] is given as “binding inhibition was retained for two hours” and the “pKa (thiol group)” value [1] is given as 7.7 (WR-1065).
